Experiments:
rIX-FP CHO-K1 clone = test: Reactor fed-batch culture (Experiment 2): rIX-FP activity, antigen, cell growth; format: cell-based, Chinese hamster; details: for Activity (total active produced) / Antigen (total antigen produced) / viable cell densities / growth profile / Ratio (active molecule to antigen): fed-batch; for Activity (total active produced) / Antigen (total antigen produced): Medium A, approx. 4 L; for Activity (total active produced) / Antigen (total antigen produced) / Ratio (active molecule to antigen): up to 192 hour post inoculation; for viable cell densities / growth profile: reduced versus non-reduced MSB
Experimental: The medium used for the propagation was a commercially obtainable serum-free chemically defined medium specifically designed for the production of recombinant proteins in CHO cells: “Medium A”. The clones utilised the Lonza glutamine synthetase (GS) system and were passaged in the absence of glutamine with selection maintained by 25 uM methionine sulfoximine (MSX). In the last culture stage, used for productivity measurement, both glutamine and MSX were not added to the medium.
Vitamin K is essential to the cell for the production of active recombinant Factor IX, due to the Vitamin K-dependent gamma-carboxylation of the molecule. In experiments describing the present invention Vitamin K3 in the form of Menadione sodium bi-sulphate (MSB, Sigma) was chosen as the source of Vitamin K as this form is water soluble and thus readily accessible to the cell. Addition of MSB occurred daily at a concentration of 50 ng/ml.
Due to the inherent unstable nature of the reduced MSB, quantification of exact concentrations of the reduced MSB was not available at the time of experimentation. Therefore all stated concentrations of reduced MSB are calculated values derived from the starting concentration of MSB at the commencement of the reduction process. It is anticipated that the actual reduced MSB concentration is less than the calculated amount due to some small losses occurring through the reduction process.
The reactors were Sartorius/Braun 5 L dished bottom glass reactors, with a single Rushton Impeller for agitation and a ring sparger. All reactor cultures were performed under the following conditions unless otherwise stated.
(§1) Cell counts were performed utilising the Innovartis Cedex automated cell counter in accordance with the manufacturers instructions. Glucose, lactate, ammonia and glutamine assays were performed utilising the Yellow Springs Instruments (YSI) 7100 analyser in accordance with the manufacturers instructions. Off-line determination of dissolved carbon dioxide concentrations were performed using the RapidLab 248 Blood Gas Analyser from Siemens (formerly Bayer) in accordance with the manufacturer's instructions. Antigen assay was performed using an internal procedure ELISA for Quantitation of Factor IX Antigen. The Factor IX Activity assay was performed using the “BIOPHEN FIX” chromogenic FIX test. Sampling was performed daily from the point of inoculation for all assays.
Under reactor fed-batch conditions a rIX-FP CHO-K1 clone was cultivated under the standard conditions. This experiment assessed the cell growth, antigen production and active rIX-FP production from the cell under either MSB addition or reduced MSB addition. The feed utilised in this experiment was glucose based (100 g/l) supplemented with the following amino acids: • ? Asparagine at 21.4 g/L; • ? Cysteine at 5.6 g/L; • ? Aspartic acid at 5 g/L.
The reactor test conditions were Reactor A4 utilising a non-reduced MSB addition and Reactor B4 utilising a reduced MSB addition. In both reactors Medium A was used as described in Example 4.

[1] = tested on: CHO-S cell line expressing rIX-FP; test: Flask productivity assay (Experiment 1): FIX activity, FIX antigen; format: cell-based, Chinese hamster; details: for Ratio (activity/antigen) / Activity (Factor IX activity) / Antigen (Factor IX antigen): double addition; for Activity (Factor IX activity) / Antigen (Factor IX antigen): 50 ng/ml, mean of duplicate flasks
Experimental: as §1
The Flask productivity assay was performed as described below.
A CHO-S cell line expressing rIX-FP was used and cultured in an alternative commercially obtainable serum-free chemically defined medium specifically designed for the production of recombinant proteins in CHO cells (“Medium B”) with 8 mM L-glutamine. In the N−1 and N (with N being the last passage number) passage 50 ng/ml MSB was added. Another addition was performed at 48 hours post inoculation. Cultures were inoculated at 2×10^5 viable cells/mL at a 30 mL volume in a 125 mL shake flask, cultured at 37 C, 5% CO2, 125 rpm in a humidified incubator (Multitron, Infors HT). Samples were assayed for cell density, cell viability, rIX-FP activity and antigen content.
Experiment 1 was performed to assess the effect of reduced MSB on culture performance compared to additions of MSB in a flask format. The cells were subjected to the standard flask productivity assay with assays for cell density, Factor IX antigen and Factor IX activity performed.

CHO-K1 clone A5 (rIX-FP) = test: Extended draw-fill reactor culture (Experiment 3): rIX-FP activity, antigen, cell growth; format: cell-based, Chinese hamster; details: for Ratio / Activity / Antigen: extended draw-fill; for Activity / Antigen: approx. 7 L
Experimental: as §1
The CHO-K1 clone A5 was cultivated under extended draw-fill conditions with two media, Media A and yet another commercially obtainable serum-free chemically defined medium specifically designed for the production of recombinant proteins in CHO cells: Media C. While comparing the performance of the media, the effect of the addition of MSB or reduced MSB was assessed (Table 5). As with previous experiments the outputs from this investigation were growth parameters of the cell and the production of active rIX-FP molecule and rFIX-FP antigen.

[2] = tested on: CHO-S cell line expressing rIX-FP; test: Flask productivity assay (Experiment 1): FIX activity, FIX antigen; format: cell-based, Chinese hamster; details: single addition; for Activity (Factor IX activity) / Antigen (Factor IX antigen): 50 ng/ml, mean of duplicate flasks
[3] = tested on: CHO-S cells expressing albumin fused Factor VII; test: Specific activity of albumin-fused Factor VII expressed in bioreactor culture (Experiment 6); format: cell-based, Chinese hamster; details: albumin-fused FVII; 50 ng/ml increased daily to 250 ng/ml; MSB n = 4, rMSB n = 25
Experimental: An albumin fused Factor VII was cloned and expressed in CHO-S cells as described in Thromb. Haemost. 2008 April; 99(4):659-67.
Cultivation of mammalian cells occurred under either batch or fed-batch conditions at a starting volume of 3 liters in a 5 liter bioreactor system. Controlled parameters were temperature (37° C.), pH (7.2), agitation (250 rpm) and dissolved oxygen. The medium used was a commercially available, chemically defined media (CD-CHO, Invitrogen) which was supplemented with MSB or rMSP in a starting concentration of 50 ng/ml. Each day the concentration was increased by 50 ng/ml until on day 5 a maximum concentration of 250 ng/ml was reached, which was then held for the remainder of the cultivation period.
The activity of FVII was determined using a chromogenic assay (COASET® FVII test kit (Chromogenix, 82190063)). The amount of protein was determined via reverse phase HPLC.

gamma carboxylation = details: cell free system; cited from earlier work
[4] = tested on: Chinese hamster ovary (CHO) cells secreting Factor IX; details: cited from earlier work

Compound | amount of active rIX-FP (rIX-FP CHO-K1 clone; fed-batch conditions) | Activity (total active produced) (rIX-FP CHO-K1 clone) | Antigen (total antigen produced) (rIX-FP CHO-K1 clone) | viable cell densities / growth profile (rIX-FP CHO-K1 clone) | Ratio (active molecule to antigen) (rIX-FP CHO-K1 clone) | Ratio (activity/antigen) ([1]; 72 hours) | Activity (Factor IX activity) ([1]; 72 hours) | Antigen (Factor IX antigen) ([1]; 72 hours) | Ratio (activity/antigen) ([1]; 96 hours) | Activity (Factor IX activity) ([1]; 96 hours) | Antigen (Factor IX antigen) ([1]; 96 hours) | Ratio (CHO-K1 clone A5 (rIX-FP); Medium A) | Activity (CHO-K1 clone A5 (rIX-FP); Medium A, 50 ng/ml per day) | Antigen (CHO-K1 clone A5 (rIX-FP); Medium A, 50 ng/ml per day) | Ratio (CHO-K1 clone A5 (rIX-FP); Medium C) | Activity (CHO-K1 clone A5 (rIX-FP); Medium C, 50 ng/ml per day) | Antigen (CHO-K1 clone A5 (rIX-FP); Medium C, 50 ng/ml per day) | Ratio (activity/antigen) ([2]; 72 hours) | Activity (Factor IX activity) ([2]; 72 hours) | Antigen (Factor IX antigen) ([2]; 72 hours) | further results
CC1(S(=O)(=O)[O-])CC(=O)c2ccccc2C1=O.[Na+] (stereo not shown) [MSB, Menadione sodium bisulphite, reference compound] | 22357 IU | 22357 U | 49479 U | very similar growth profiles and maximum cell densities | 0.45 | 0.96 | 431.5 | 451.5 | 0.56 | 649 | 1155.5 | 0.49 | 28864 U | 58987 U | 0.52 | 23570 U | 45443 U | 0.57 | 357.5 | 625.5 | activity values as percent of the reduced MSB addition values (CHO-K1 clone A5 (rIX-FP); draw-fill, both media types): 94-98%; Ratio (activity/antigen) ([2]; 96 hours): 0.24; Activity (Factor IX activity) ([2]; 96 hours): 629.5; Antigen (Factor IX antigen) ([2]; 96 hours): 2573; Specific Activity, Mean [3]: 313.5 IU/mg
CC1=CC(=O)c2ccccc2C1=O [menadione, 2-methyl-1,4-naphthoquinone] | – | – | – | – | – | – | – | – | – | – | – | – | – | – | – | – | – | – | – | – | promotion of gamma carboxylation (gamma carboxylation): inactive in promoting gamma carboxylation
Cc1cc(O)c2ccccc2c1O [reduced menadione] | – | – | – | – | – | – | – | – | – | – | – | – | – | – | – | – | – | – | – | – | promotion of gamma carboxylation (gamma carboxylation): inactive in promoting gamma carboxylation
Reduced Menadione Sodium Bisulphite [rMSB] | 35444 IU | 35444 U | 38197 U | very similar growth profiles and maximum cell densities | 0.93 | 0.93 | 477 | 514.5 | 0.71 | 902 | 1271 | 0.66 | 30580 U | 46254 U | 0.62 | 24052 U | 38528 U | 0.97 | 500 | 516 | antigenic yield (rIX-FP CHO-K1 clone; fed-batch conditions): 38197 IU; antigenic yield as percent of the MSB value (rIX-FP CHO-K1 clone; fed-batch conditions): 77%; increase in active rIX-FP relative to MSB addition (rIX-FP CHO-K1 clone; fed-batch conditions): 59%; activity compared with non-reduced MSB additions ([1]; 72 hr): slightly higher than non-reduced MSB additions; activity compared with MSB addition ([1]; 96 hr): greater activity results than that obtained for the MSB addition; cell growth, reduced versus non-reduced MSB (CHO-K1 clone A5 (rIX-FP); draw-fill, 50 ng/ml per day): very little difference in relation to cell growth; antigenic material compared to MSB additions (CHO-K1 clone A5 (rIX-FP); draw-fill, Medium A): 78%; antigenic material compared to MSB additions (CHO-K1 clone A5 (rIX-FP); draw-fill, Medium C): 84%; increase in ratio compared to MSB additions (CHO-K1 clone A5 (rIX-FP); draw-fill, depending on media type): 19-35%; Ratio (activity/antigen) ([2]; 96 hours): 0.86; Activity (Factor IX activity) ([2]; 96 hours): 1070.5; Antigen (Factor IX antigen) ([2]; 96 hours): 1249; Specific Activity, Mean [3]: 392.6 IU/mg
vitamin K | – | – | – | – | – | – | – | – | – | – | – | – | – | – | – | – | – | – | – | – | concentration in cell culture medium at which requirement to elicit active Factor IX reaches saturation [4]: 5 µg/mL

Source: patent US9212214B2, “Methods of increasing the expression yield of vitamin K-dependent proteins” (CSL Limited, priority 2009, dated 2015)
